Here are results for 13 compounds from PMC8228597, “Asperflaloids A and B from Aspergillus flavipes DZ-3, an Endophytic Fungus of Eucommia ulmoides Oliver” (Molecules, 2021).

The nature of assay [1]: DPPH radical scavenging test (antioxidant activity). To be noted: for IC50: − means no activity. Here is the method:
The DPPH scavenging was assayed according to the reported method. The DPPH radical scavenging test was performed in 96-well microplates. Samples (compounds 1–12) were added to 180 μL (150 μmol/L) DPPH solution in EtOH at 20 μL solutions of different concentrations between 10 and 500 μM. After 30 min of light avoidance, absorbance at 517 nm using a microplate reader (Tecan Trading AG, Männedorf, Switzerland) was measured and the percentage of activity was calculated. All assays were performed in three replicates, and vitamin C was used as a positive control.
On the technique in general: DPPH is a stable violet radical that fades when it is reduced.

Assay [2] has as its target α-glucosidase (Saccharomyces cerevisiae, UniProt P53341). Nature of the assay: α-glucosidase inhibitory assay. Format: biochemical. The settings on record: − means no activity. Here is the method: The α-glucosidase inhibitory effect was assessed as described in our recently published paper.

Chain of α-glucosidase (P53341 whole entry): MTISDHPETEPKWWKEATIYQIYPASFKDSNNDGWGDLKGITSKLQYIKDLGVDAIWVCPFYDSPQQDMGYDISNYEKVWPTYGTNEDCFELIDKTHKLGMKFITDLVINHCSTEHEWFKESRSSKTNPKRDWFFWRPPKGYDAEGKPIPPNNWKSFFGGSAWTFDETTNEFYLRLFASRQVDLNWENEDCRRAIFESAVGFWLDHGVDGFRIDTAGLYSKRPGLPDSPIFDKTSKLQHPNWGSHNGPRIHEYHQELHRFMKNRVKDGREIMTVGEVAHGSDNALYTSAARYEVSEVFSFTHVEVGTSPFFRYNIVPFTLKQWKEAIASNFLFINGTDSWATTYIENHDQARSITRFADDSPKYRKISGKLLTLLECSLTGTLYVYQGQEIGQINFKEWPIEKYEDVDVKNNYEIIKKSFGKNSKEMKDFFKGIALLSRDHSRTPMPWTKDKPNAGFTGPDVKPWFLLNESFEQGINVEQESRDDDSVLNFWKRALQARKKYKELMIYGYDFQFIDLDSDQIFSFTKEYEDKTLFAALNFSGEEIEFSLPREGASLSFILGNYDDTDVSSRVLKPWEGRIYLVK

As to `COC(=O)Cc1ccc(O)c(O)c1` [Compound 8, 3,4-dihydroxyphenylacetic acid methyl ester], in assay [1], the “Antioxidant % Inhibition (500 μM)” value amounted to 92% and the half-inhibitory concentration (IC50) is 27.1 µM.
The matching figures for `N#CCc1ccc(O)cc1` [Compound 12, 4-hydroxyphenylacetonitrile]: <50% and > 500 µM.
For `C=CC(C)(C)[C@]12C=C(OC)C(=O)N3/C(=C/c4c[nH]cn4)C(=O)N[C@@]31N(OC)c1ccccc12` [Compound 5, oxaline], in assay [1], the “Antioxidant % Inhibition (500 μM)” value was <50% and the concentration for half-maximal inhibition (IC50) is > 500 µM.
In the case of `O=C(O)c1ccccc1-n1ncnc1Cc1ccc(O)cc1` [Compound 4, penipanoid A], in assay [1], the “Antioxidant % Inhibition (500 μM)” value is given as <50% and the half-maximal inhibitory concentration (IC50) was > 500 µM.
With `O=C(O)[C@H](Cc1ccc(O)cc1)n1cnc2ccccc2c1=O` [Compound 1, Asperflaloid A], in assay [1], the “Antioxidant % Inhibition (500 μM)” value is on record as <50% and the IC50 is > 500 µM.
As to `O=c1[nH]c(Cc2ccc(O)cc2)nc2ccccc12` [Compound 3, 2-(4-hydroxybenzyl)quinazolin-4(3H)-one], in assay [1], the “Antioxidant % Inhibition (500 μM)” value is <50% and the half-maximal inhibitory concentration (IC50) is > 500 µM.
With `NC(=O)Cc1ccc(O)cc1` [Compound 10, 4-hydroxybenzeneacetamide], in assay [1], the “Antioxidant % Inhibition (500 μM)” value was found to be 64.9% and the IC50 was determined as 339 µM.
Take phenylacetic acid [Compound 9]: the IC50 in assay [2] is > 1000 µM. Also, in assay [1], the “Antioxidant % Inhibition (500 μM)” value is <50% and the 50% inhibitory concentration (IC50) is > 500 µM.
Regarding `COC(=O)Cc1ccc(O)cc1` [Compound 11, 4-hydroxy phenylacetic acid methyl ester], in assay [1], the “Antioxidant % Inhibition (500 μM)” value is on record as <50% and the concentration for half-maximal inhibition (IC50) was > 500 µM.
As to `O=C(O)Cc1ccc(O)c(O)c1` [Compound 7, 3,4-dihydroxybenzeneacetic acid], in assay [1], the “Antioxidant % Inhibition (500 μM)” value was 96.6% and the IC50 turned out to be 14.4 µM.
Regarding `CC(=O)Nc1ccccc1C(=O)OC[C@@H](O)CO` [Compound 2, Asperflaloid B], in assay [1], the “Antioxidant % Inhibition (500 μM)” value was <50% and the 50% inhibitory concentration (IC50) is > 500 µM.
Turning to `C/C(=C/C(=O)NCCCC(=O)O)CCO` [Compound 6, fuscoatramide], in assay [1], the “Antioxidant % Inhibition (500 μM)” value was <50% and the half-inhibitory concentration (IC50) is > 500 µM.
In the same order, the values of `O=C1O[C@H]([C@@H](O)CO)C(O)=C1O` [Vitamin C, vitamin C, reference compound] are 96.4% and 26.7 µM.

Broadly, the IC50 is the concentration at which inhibition is half-maximal. A low value points to greater potency in that assay.
